This note sets out measurements from patent US7052705B2, “Anti-angiogenic peptides” (Regeneron Pharmaceuticals, Inc., priority 2001, dated 2006).

One experiment concerns the target T1, VEGFR-2 (Homo sapiens, UniProt P35968).
T1 construct: In the COS-1 cells overexpressing the full-length VEGFR-2; expressed in transfected cells; host or cells: COS-1
It counts as binding. As to the method: (§1) When co-expressing VEGFR-2 and NP-1, 5 μg of VEGFR-2 cDNA and 2 μg of NP-1 cDNA are used. When the receptors are expressed in isolation, for VEGFR-2, 5 μg of VEGFR-2 cDNA and 2 μg of mock vector cDNA are used.
(§2) After generation of the liposome/DNA solution, the cells are rinsed one time with 5 ml Optimem I, then replaced with another 5 ml of Optimem I containing the liposome/DNA solution. The cells are incubated for two to four hours at 37° C., 5% CO2, then 5 ml of COS-1 cell growth medium is applied and the transfection is allowed to proceed overnight. The following day, cells are trypsinized (0.2% trypsin, 1 mM EDTA, Gibco-BRL), and cells containing common transfectants are pooled. […] The cells are then used for corresponding VEGFR-2/NP-1 complex formation and peptide blocking studies.
Cells are plated the day before experimentation at 200,000 cells per well in twelve well tissue culture plates (VWR) in 1 ml of growth medium specific for each cell type. […]
(§3) Unbound ligand is then removed by quickly washing three times with 5 ml ice cold BSA-free binding buffer (MEM, Gibco, 25 mM Hepes, Gibco). Cells are lysed by the addition of 250 μl of RIPS Buffer (previously described), and the lysed cells are transferred to 12×75 mm test tubes and counted using a gamma counter. […]

Experiment [1] has as its system T2, VEGFR-2/NP-1.
T2 construct: In the COS-1 cells overexpressing the full-length VEGFR-2; the NP-1 cDNA used for these experiments would only produce the full-length receptor; expressed in transfected cells; host or cells: COS-1
It counts as binding, human. As to the method:
as §1, §2
(§4) Cells are plated the day before experimentation at 200,000 cells per well in twelve well tissue culture plates (VWR) in 1 ml of growth medium specific for each cell type. On the day of experimentation, the cells were pre-equilibrated at 4° C. for 30 to 60 minutes in binding buffer (0.2% BSA, Sigma; 25 mM Hepes, Gibco; MEM, Gibco). […] The binding reaction is allowed to reach equilibrium for four hours at 4° C. with gentle agitation.
(§5) Unbound ligand is then removed by quickly washing three times with 5 ml ice cold BSA-free binding buffer (MEM, Gibco, 25 mM Hepes, Gibco). Cells are lysed by the addition of 250 μl of RIPS Buffer (previously described), and the lysed cells are transferred to 12×75 mm test tubes and counted using a gamma counter. Generation of competition curves and IC50 values are performed using the Prism software package (Graphpad Software Inc., San Diego, Calif.).

For experiment [2], the target named is T3, NP-1 (Homo sapiens, UniProt O14786). It counts as binding. Further details: the NP-1 cDNA used for these experiments would only produce the full-length receptor; expressed in transfected cells; host or cells: COS-1. As to the method:
as §1, §2, §4, §5

The subject of another experiment is COS-1 cells (Mock). Put plainly: Saturation analysis of 125I-VEGF165 binding, COS-1 Mock. The settings on record: COS-1 transient. The text has this: To perform hNeuropilin-1 (hNP-1) and hVEGFR-2 complex formation and peptide blocking experiments, the hVEGFR-2 and hNP-1 cDNAs are cloned into the pJFE14 mammalian expression plasmid (Regeneron Pharmaceuticals) containing the SRα promoter. COS-1 cells are transiently transfected with pJFE14 (Regeneron Pharmaceuticals), hVEGFR-2 (Regeneron Pharmaceuticals), or hNP-1 (Procter & Gamble Pharmaceuticals) expression plasmids using the Lipofectamine-2000 system (Gibco-BRL). […] When co-expressing VEGFR-2 and NP-1, 5 μg of VEGFR-2 cDNA and 2 μg of NP-1 cDNA are used. When the receptors are expressed in isolation, for VEGFR-2, 5 μg of VEGFR-2 cDNA and 2 μg of mock vector cDNA are used.
Unbound ligand is then removed by quickly washing three times with 5 ml ice cold BSA-free binding buffer (MEM, Gibco, 25 mM Hepes, Gibco). Cells are lysed by the addition of 250 μl of RIPS Buffer (previously described), and the lysed cells are transferred to 12×75 mm test tubes and counted using a gamma counter. Generation of competition curves and IC50 values are performed using the Prism software package (Graphpad Software Inc., San Diego, Calif.). […]
This possibility was evaluated by determining equilibrium binding Kd values in cells expressing VEGFR-2 alone, NP-1 alone, and cells co-expressing both receptors, using standard saturation analysis techniques as known to one skilled in the art.

The test system of experiment [3] is Balb/c cells (Mock, endogenous NP-1). Put plainly: Saturation analysis of 125I-VEGF165 binding, Balb/c Mock (pGBMGH). The settings on record: Balb/c stable.
Text: Pools of infected Balb/C 3T3 A31 cells expressing hVEGFR-2 or GFP alone (Mock) are selected two times by FACS sorting using the hVEGFR-2 specific monoclonal antibody J5F4A2 (Procter & Gamble Pharmaceuticals as described in J. Biol. Chem. 276(27):25520–25531 (2001), which is expressly incorporated by reference herein in its entirety, for the VEGFR-2 cells, or by GFP emission for the Mock cells. Clonal populations of VEGFR-2 are generated by subjecting the FACS sorted VEGFR-2 cell pool to limiting dilution. A clonal hVEGFR-2 cell line termed D7R2 is selected for experimental studies based on its high levels of hVEGFR-2 expression by Western blot analysis. The pool of the Mock GFP expressing cells, hereinafter referred to as pGBMGH, is not subjected to limiting dilutions and thus is not a clonal population.
as §3
This possibility was evaluated by determining equilibrium binding Kd values in cells expressing VEGFR-2 alone, NP-1 alone, and cells co-expressing both receptors, using standard saturation analysis techniques as known to one skilled in the art. […]

In experiment [4] the test system is VEGF165 vascular growth response. Put plainly: Mouse corneal pocket model. It counts as in vivo. Further details: key to Score #1 (subjective neovascular response score) / Score #2 (subjective neovascular response score) / Score #3 (subjective neovascular response score): subjective neovascular growth score, 0 to 6 scale. The settings on record: per animal, scale 0 to 6, pellet P6V8 4 μg and/or VEGF165 300 ng. As to the method: A 0.2 μl aliquot of this solution yielded a 4 μg dose. Human recombinant VEGF165 was purchased from R&D Systems (Minneapolis, Minn.), supplied in a lyophilized, carrier free form and reconstituted in the same water as the above peptide. A 0.2 μl aliquot of this solution yielded a 300 ng dose.
Male albino mice (Crl: CD-I (ICR) BR, VAF) from Charles River (Portage, N.C.), 20–24 grams were used. […] Compound adsorbed pellets were fabricated and implanted as described below. The treated eye was imaged on the day of implantation (day 0) and on days 4 and 7 following surgery. The growth response was subjectively graded on a scale from 0 to 6 by three independent graders blinded from the treatment grouping labels using the 3× printed image.
Polyvinyl alcohol (PVA) matrix material (Rippey, El Dorado Hills, Calif.) was cut into 1 cm×3 cm pieces and placed in a vibratome for sectioning on edge to produce 300 μm thick strips. The strips were individually sterilized by exposure to ethylene oxide. A strip was then cut under a dissecting microscope into approximately 300 μm cubes. The desired concentration of test compound or vehicle was adsorbed, sometimes utilizing a micro dessicant chamber. An HP auto sampler micro-syringe (Hamilton, P/N 7000.5) controlled the exact volume of the agent adsorbed onto the sponge. The sponge was then placed on a microscope slide prepared with a coating (20 μl spread over a 0.75 mm×1.5 mm area) of 12% hydron (Sigma, St. Louis, Mo.). The slide was protected in a clean petri dish and placed into a dessicator at 4° C. for a few hours or overnight. The dry, adsorbed sponges were mechanically flattened and overlaid with another aliquot of 12% hydron and again placed into a dessicator to cure the hydron coating. Fabrication of the adsorbed PVA sponge-hydron sandwich (referred to as a pellet) was done no more than 48 hours prior to implantation and the pellets were stored at 4° C. On the day of surgery and just prior to implantation, the pellet was trimmed so that the sponge remained encased by hydron (approximately 400 μm×400 μm×50 μm) and could be carefully removed from the slide.
Mice were anesthetized with 0.05 cc of Ketamine (140 mg/kg) and 0.03 cc Xylazine (17 mg/kg). A surgical plane of anesthesia was maintained by subsequent administration of half doses of the above compounds as needed. The whiskers on the animal's right side were trimmed down to ¼ of an inch. The right eye was bathed in an ophthalmic local anesthetic solution (Ophthaine, 0.5% tetracine hydrochloride) initially and throughout the procedure. The animal was placed on its side and the skin around the eye was gently retracted to expose the lateral and apical aspects of the cornea. The lateral limbic artery bifurcation was positioned horizontally. While stabilizing the eye against the ocular orbit, a vertical incision was made using a micro scalpel into the corneal tissue just lateral to the pupil. Care was taken to prevent accidental perforation of the anterior eye chamber. The incision depth was carefully deepened until a delicate and small lateral stab could be made (on axis with the lateral limbic artery bifurcation) with the micro scalpel into the middle of the corneal stroma. This lateral, intrastromal incision was enlarged by blunt dissection with very fine forceps until a pocket was formed from the vertical incision toward the limbus.
A hydron coated PVA sponge with adsorbed test compound (pellet) was prepared for implantation by carefully excising and removing it from the microscope slide. The pellet was introduced gently into the corneal pocket and advanced to within 1–2 mm of the limbus. The edges of the vertical corneal incision were approximated to encourage rapid healing. The imaging procedure (described below) was used to document the native limbic vascular architecture at the time of implantation. Post surgical recovery of the animal consisted of triple antibiotic ophthalmic ointment to prevent corneal drying, abrasion and infection. […]

Experiment [5] addresses T3, NP-1. Put plainly: Whole cell binding assay: competition for 125I-VEGF165 in stable Balb/C 3T3 A31 cells overexpressing NP-1. The settings on record: for IC50: Balb/C 3T3 A31 cells, competition for 125I-VEGF165; for Relative affinity (IC50 peptide / IC50 VEGF165), NP-1: Stable Balb/c cells. Here is the method: (§6) Balb/C 3T3 A31 VEGFR-2, NP-1, and VEGFR-2/NP1 stable cells are created using the Nolan Lab Phoenix Retroviral system, previously described.
(§7) Virus containing the hNP-1 gene is generated according to the procedure outlined previously using the QMXE cells.
(§8) Clonal cell lines are obtained by subjecting the NP-1 infected cells to neomycin selection using Balb/C growth medium containing 1.5–2.0 mg/ml G418 (Gibco-BRL) for two weeks. Single colonies are obtained and clones are subjected to Western blot analysis to confirm stable expression of NP-1.
as §4, §5

Experiment [6] relates to VEGFR-2/NP-1. Put plainly: Whole cell binding assay: competition for 125I-VEGF165 in stable Balb/C 3T3 A31 cells overexpressing VEGFR-2 and NP-1. Further details: species or system human. As to the method: as §6, §7, §8, §4, §3

What is called Kd is the equilibrium constant for the complex coming apart. The IC50 is the concentration that inhibits the measured activity by half.

Values joined by “and” are separate entries in the source; they are usually repeats but may differ in a detail not shown here. Identical values can stand only once. Like-named read-outs stand apart in the source and are kept apart here. Ends that are not written are not given here.

T3 sequence (O14786 22-923): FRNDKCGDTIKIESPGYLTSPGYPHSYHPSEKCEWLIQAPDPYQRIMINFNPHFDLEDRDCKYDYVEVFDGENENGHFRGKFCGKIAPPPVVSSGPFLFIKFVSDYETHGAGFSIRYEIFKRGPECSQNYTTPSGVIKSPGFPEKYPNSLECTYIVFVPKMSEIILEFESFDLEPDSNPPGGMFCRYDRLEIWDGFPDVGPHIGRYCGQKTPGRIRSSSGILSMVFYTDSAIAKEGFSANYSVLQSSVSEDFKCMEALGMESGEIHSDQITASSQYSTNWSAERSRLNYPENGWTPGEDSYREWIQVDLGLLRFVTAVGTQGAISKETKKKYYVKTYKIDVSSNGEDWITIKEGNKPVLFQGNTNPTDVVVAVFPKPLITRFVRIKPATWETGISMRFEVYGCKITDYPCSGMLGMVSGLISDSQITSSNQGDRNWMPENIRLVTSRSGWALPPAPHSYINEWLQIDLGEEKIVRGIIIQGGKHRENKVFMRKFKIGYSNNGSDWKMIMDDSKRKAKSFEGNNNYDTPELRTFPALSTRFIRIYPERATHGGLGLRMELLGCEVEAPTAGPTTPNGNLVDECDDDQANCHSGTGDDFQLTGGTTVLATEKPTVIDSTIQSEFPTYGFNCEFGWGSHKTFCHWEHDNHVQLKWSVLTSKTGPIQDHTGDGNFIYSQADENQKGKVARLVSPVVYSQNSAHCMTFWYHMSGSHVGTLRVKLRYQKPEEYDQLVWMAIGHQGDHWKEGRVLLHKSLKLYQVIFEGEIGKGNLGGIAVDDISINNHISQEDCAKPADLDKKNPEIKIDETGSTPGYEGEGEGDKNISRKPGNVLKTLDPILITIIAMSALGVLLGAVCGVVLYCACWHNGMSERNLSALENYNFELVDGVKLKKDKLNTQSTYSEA
T1 sequence (P35968 20-1356): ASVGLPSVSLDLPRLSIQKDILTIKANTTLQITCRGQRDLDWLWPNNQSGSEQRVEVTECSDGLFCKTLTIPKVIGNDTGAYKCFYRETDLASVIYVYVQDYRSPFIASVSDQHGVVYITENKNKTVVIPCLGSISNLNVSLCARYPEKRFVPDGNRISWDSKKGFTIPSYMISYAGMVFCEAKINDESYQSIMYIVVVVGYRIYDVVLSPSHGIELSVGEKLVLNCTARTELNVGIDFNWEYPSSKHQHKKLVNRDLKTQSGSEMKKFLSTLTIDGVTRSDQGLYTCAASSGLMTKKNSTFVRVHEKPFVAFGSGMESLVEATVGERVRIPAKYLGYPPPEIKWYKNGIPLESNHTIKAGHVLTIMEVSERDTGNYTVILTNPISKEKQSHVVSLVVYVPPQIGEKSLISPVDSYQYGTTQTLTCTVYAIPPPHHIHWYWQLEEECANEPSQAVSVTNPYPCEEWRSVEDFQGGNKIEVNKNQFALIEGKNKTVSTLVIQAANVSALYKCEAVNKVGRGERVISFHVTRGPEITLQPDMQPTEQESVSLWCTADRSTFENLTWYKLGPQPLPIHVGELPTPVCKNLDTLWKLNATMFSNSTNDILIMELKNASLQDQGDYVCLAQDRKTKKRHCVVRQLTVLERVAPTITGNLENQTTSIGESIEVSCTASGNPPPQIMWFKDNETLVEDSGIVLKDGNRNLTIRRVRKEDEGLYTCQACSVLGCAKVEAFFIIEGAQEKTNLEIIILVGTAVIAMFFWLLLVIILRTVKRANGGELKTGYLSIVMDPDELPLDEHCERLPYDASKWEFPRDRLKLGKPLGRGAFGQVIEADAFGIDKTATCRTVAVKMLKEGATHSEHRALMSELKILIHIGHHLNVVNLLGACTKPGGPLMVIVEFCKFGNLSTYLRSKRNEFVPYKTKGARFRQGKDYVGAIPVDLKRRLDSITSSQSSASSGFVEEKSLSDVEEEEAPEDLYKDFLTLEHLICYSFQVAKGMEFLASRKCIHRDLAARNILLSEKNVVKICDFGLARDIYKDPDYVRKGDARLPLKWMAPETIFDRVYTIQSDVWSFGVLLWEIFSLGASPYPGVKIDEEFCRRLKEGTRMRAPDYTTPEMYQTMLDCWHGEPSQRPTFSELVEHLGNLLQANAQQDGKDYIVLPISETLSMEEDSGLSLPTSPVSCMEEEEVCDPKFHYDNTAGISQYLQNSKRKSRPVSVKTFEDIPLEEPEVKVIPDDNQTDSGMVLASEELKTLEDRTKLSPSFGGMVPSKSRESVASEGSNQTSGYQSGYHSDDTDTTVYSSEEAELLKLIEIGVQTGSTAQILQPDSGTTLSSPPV

As for H-RRPKGRGKRRREKQRAAAKPRR-OH [AS-4A], the “Relative Affinity to Lead Peptide (RALP), VEGFR-2” value on VEGFR-2 is given as 1.9. Also, the “Relative Affinity to Lead Peptide (RALP), VEGFR-2/NP-1” value in the experiment with VEGFR-2/NP-1 [1] stood at 0.78. Moreover, at NP-1 [2], the “Relative Affinity to Lead Peptide (RALP), NP-1” value (“Relative Affinity … (RALP), NP-1” for short) is listed as 2.1.
In the case of “H-RRPKGRGKRAAAKQRPSDKPRR-OH [AS-3, RRP KGR GKR AAA KQR PSD KPR R]”, the “Relative Affinity to Lead Peptide (RALP), VEGFR-2” value on VEGFR-2 turned out to be 4. Further, the “Relative Affinity to Lead Peptide (RALP), VEGFR-2/NP-1” value in the experiment on VEGFR-2/NP-1 [1] (AS series, lead peptide P6V8CS, COS-1, NC = no competition) is on record as “complete loss of binding”. In addition, the “Relative Affinity … (RALP), NP-1” value at NP-1 [2] amounted to 0.55.
Take “VEGF165: human recombinant VEGF165 (R&D Systems), vascular endothelial growth factor isoform 165”: in the experiment with COS-1 cells (Mock), the Kd came to 1.11 nM and the “Log Kd ± SEM” value is reported as −8.95 ± 0.31. In experiment [3], the Kd was 0.222 nM and the “Log Kd ± SEM” value is −9.65 ± 0.13. Besides, in experiment [4] (grader 1), the “Score #1 (subjective neovascular response score)” value was 2 (2×) and 3 (3×) and 4 (2×) and 5. Moreover, the “Score #2 (subjective neovascular response score)” value in experiment [4] (grader 2) is 2 (3×) and 4 (4×) and 5. Also, the “Score #3 (subjective neovascular response score)” value in experiment [4] (grader 3) is 2 (3×) and 3 (2×) and 4 and 5 (2×).
With “KGRGKRRREKQRPCDKPRR [Peptide P6V8-3N, KGR GKR RRE KQR P CDK PRR]”, at NP-1 [5], the IC50 was 254 nM and the “Relative affinity (IC50 peptide / IC50 VEGF165), NP-1” value was 1,607. In addition, the “Relative affinity (IC50 peptide / IC50 VEGF165), VEGFR-2/NP-1” value in the experiment with VEGFR-2/NP-1 [6] is 6,928.
On to RRPKGRGKRRREAAAPSDKPRR [AS-4], for which the “Relative Affinity to Lead Peptide (RALP), VEGFR-2/NP-1” value with VEGFR-2/NP-1 [1] came out at 4.2. Further, at NP-1 [5], the IC50 worked out at 17.8 nM and the “Relative affinity (IC50 peptide / IC50 VEGF165), NP-1” value is given as 112. For the same substance, in the experiment with VEGFR-2/NP-1 [6], the “Relative affinity (IC50 peptide / IC50 VEGF165), VEGFR-2/NP-1” value is 3,856. In addition, the “Relative Affinity … (RALP), NP-1” value at NP-1 [2] was 0.45. In addition, the “selectivity for cells expressing NP-1 alone versus cells co-expressing VEGFR-2 and NP-1” value at NP-1 [2] (COS-1) is reported as “about 100 fold”.
